Experimental data as given in PMC9098912, “Molecular basis for inhibiting human glucose transporters by exofacial inhibitors” (Nature Communications, 2022).
Positions count from the first letter of the chain named. “Also recorded” adds a separate entry of the source.

What was measured:
[1] = target: T1, GLUT3exo (GLUT3 S64W and I305W) (Homo sapiens, UniProt P11169, I305W/N43T/S64W); assay: biochemical; format: binding; conditions: for Figure 2c: MST binding curve, Mean: GLUT3 dTrp mutant, log[SA47]
T1 construct: His10 (N); made in house; host or cells: Sf9 insect cells (baculovirus)
T1 sequence (P11169 whole entry N43T/S64W/I305W): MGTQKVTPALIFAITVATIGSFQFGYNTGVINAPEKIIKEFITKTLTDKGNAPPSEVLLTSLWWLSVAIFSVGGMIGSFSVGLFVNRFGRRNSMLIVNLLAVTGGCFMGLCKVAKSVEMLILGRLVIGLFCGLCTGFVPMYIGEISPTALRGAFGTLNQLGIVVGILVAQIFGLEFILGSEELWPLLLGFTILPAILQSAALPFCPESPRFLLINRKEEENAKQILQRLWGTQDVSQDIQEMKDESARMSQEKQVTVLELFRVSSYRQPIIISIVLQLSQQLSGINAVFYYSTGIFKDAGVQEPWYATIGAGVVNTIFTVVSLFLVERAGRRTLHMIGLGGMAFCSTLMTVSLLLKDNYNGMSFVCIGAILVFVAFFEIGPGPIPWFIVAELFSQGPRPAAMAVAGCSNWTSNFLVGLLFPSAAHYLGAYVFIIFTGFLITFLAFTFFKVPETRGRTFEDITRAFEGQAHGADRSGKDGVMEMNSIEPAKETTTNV
Experimental: Following the same principle for the engineering of XylE-WW, we introduced two Trp substitutions, S64W and I305W, on the extracellular segments of TM2 and TM8 of GLUT3, respectively. This variant will be referred to as GLUT3exo hereafter (Fig. 1a). The two bulky substituents were expected to trap GLUT3 in an outward-facing conformation.
(§1) All mutants were generated by standard PCR-based strategy.
(§2) Inhibitors with serial dilutions were mixed with indicated protein. […] MST analyses were conducted on a Monolith NT. […] The MST data was analyzed by Monolith NT.115.

GLUT3 T28A = target: T2, GLUT3 T28A (Homo sapiens, UniProt P11169, N43T/T28A); assay: Binding of SA47 to GLUT3 variant; conditions: single point mutation T28A
T2 construct: His10 (N); made in house; host or cells: Sf9 insect cells (baculovirus)
T2 sequence (P11169 1-496 T28A/N43T): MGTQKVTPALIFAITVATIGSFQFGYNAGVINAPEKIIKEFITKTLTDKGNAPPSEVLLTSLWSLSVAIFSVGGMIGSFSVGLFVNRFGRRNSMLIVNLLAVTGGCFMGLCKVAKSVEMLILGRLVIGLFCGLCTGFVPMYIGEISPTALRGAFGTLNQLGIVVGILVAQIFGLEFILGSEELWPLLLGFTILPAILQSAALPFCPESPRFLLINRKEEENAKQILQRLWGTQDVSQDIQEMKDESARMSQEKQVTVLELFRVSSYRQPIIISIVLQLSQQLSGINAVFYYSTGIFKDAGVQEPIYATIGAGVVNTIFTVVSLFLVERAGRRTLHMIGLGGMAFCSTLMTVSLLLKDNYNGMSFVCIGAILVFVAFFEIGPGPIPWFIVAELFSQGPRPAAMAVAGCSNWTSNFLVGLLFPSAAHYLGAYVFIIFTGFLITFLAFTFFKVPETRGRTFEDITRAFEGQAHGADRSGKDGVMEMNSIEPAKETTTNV

WT GLUT3 = target: T3, WT GLUT3 (Homo sapiens, UniProt P11169, N43T); assay: Microscale thermophoresis (MST) binding assay; design: Figure 1e middle: MST binding curve, Mean / Figure 1e right: MST binding curve, Mean / Figure 2c: MST binding curve, Mean: unit not given here; conditions: for Figure 2c: MST binding curve, Mean: GLUT3, log[SA47]
T3 construct: His10 (N); made in house; host or cells: Sf9 insect cells (baculovirus)
T3 sequence (P11169 1-496 N43T): T2 sequence (P11169 1-496 T28A/N43T) with A28T
Experimental: as §1, §2

[2] = target: T4, human glucose transporter GLUT1(N45T) (Homo sapiens, UniProt P11166, N45T); assay: Proteoliposome-based counterflow assay, inhibition of D-[2-3H]-glucose transport; format: biochemical; conditions: GLUT1
T4 construct: made in house
T4 sequence (P11166 1-492 N45T): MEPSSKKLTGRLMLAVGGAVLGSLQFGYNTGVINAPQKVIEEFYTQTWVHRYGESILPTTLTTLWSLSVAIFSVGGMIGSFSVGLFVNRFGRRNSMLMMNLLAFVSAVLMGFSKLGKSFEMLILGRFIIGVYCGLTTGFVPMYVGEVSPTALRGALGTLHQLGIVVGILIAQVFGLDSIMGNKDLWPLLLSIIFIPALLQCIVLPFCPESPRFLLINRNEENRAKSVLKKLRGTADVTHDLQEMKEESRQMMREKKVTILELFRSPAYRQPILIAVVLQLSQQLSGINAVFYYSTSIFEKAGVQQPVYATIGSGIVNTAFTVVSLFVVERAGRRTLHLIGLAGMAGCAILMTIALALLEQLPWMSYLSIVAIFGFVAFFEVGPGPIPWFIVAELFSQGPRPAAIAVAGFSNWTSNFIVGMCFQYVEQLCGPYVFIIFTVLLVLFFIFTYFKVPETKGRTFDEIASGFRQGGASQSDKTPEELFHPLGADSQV
Experimental: as §1
(§3) All counterflow assays were performed at 25 °C. […] Liposome without protein was used as negative control.
(§4) All experiments were repeated at least three times.

human GLUT3(N43T) = target: T5, human GLUT3(N43T) (Homo sapiens, UniProt P11169, N43T); assay: as above; format: biochemical
T5 construct: His10 (N); made in house; host or cells: Sf9 insect cells (baculovirus)
T5 sequence (P11169 1-496 N43T): T2 sequence (P11169 1-496 T28A/N43T) with A28T
Experimental: as §1, §3, §4

GLUT3 S71A = target: T6, GLUT3 S71A (Homo sapiens, UniProt P11169, N43T/S71A); assay: biochemical; format: binding
T6 construct: His10 (N); made in house; host or cells: Sf9 insect cells (baculovirus)
T6 sequence (P11169 whole entry N43T/S71A): as the sequence (P11169 whole entry N43T/S64W/I305W) above, with W64S, S71A, W305I counted along it
Experimental: as §1, §2

## COC(=O)CCNCc1ccccc1-n1ncc2c(N3CCN(c4cc(F)ccc4OC)CC3)ncnc21 [SA47]
[1]
  Kd: 314 ± 80.7 nM
[1]; M -4.60206
  Figure 2c: MST binding curve, Mean: 107.845
[1]; M -4.90309
  Figure 2c: MST binding curve, Mean: 92.9206
[1]; M -5.20412
  Figure 2c: MST binding curve, Mean: 96.8426
[1]; M -5.50515
  Figure 2c: MST binding curve, Mean: 85.0858
[1]; M -5.80618
  Figure 2c: MST binding curve, Mean: 74.1558
[1]; M -6.10721
  Figure 2c: MST binding curve, Mean: 60.9811
[1]; M -6.40824
  Figure 2c: MST binding curve, Mean: 46.911
[1]; M -6.70927
  Figure 2c: MST binding curve, Mean: 34.266
[1]; M -7.31133
  Figure 2c: MST binding curve, Mean: -0.7525
[1]; M -7.61236
  Figure 2c: MST binding curve, Mean: 4.6276
[1]; M -7.91339
  Figure 2c: MST binding curve, Mean: 1.8858
[1]; M -8.21442
  Figure 2c: MST binding curve, Mean: 1.3955
[1]; M -8.51545
  Figure 2c: MST binding curve, Mean: 4.478
[1]; M -8.81648
  Figure 2c: MST binding curve, Mean: -6.1144
GLUT3 T28A
  SA47 binding to GLUT3 T28A: abolished the binding
WT GLUT3; M -4.30103
  Figure 2c: MST binding curve, Mean: 93.1623
WT GLUT3; M -4.60206
  Figure 2c: MST binding curve, Mean: 97.5688
WT GLUT3; M -4.90309
  Figure 2c: MST binding curve, Mean: 103.147
WT GLUT3; M -5.20412
  Figure 2c: MST binding curve, Mean: 93.0436
WT GLUT3; M -5.50515
  Figure 2c: MST binding curve, Mean: 92.2406
WT GLUT3; M -5.80618
  Figure 2c: MST binding curve, Mean: 84.0843
WT GLUT3; M -6.10721
  Figure 2c: MST binding curve, Mean: 63.9676
WT GLUT3; M -6.40824
  Figure 2c: MST binding curve, Mean: 36.3211
WT GLUT3; M -7.0103
  Figure 2c: MST binding curve, Mean: 13.9692
WT GLUT3; M -7.31133
  Figure 2c: MST binding curve, Mean: 8.298
WT GLUT3; M -7.61236
  Figure 2c: MST binding curve, Mean: 1.1474
WT GLUT3; M -7.91339
  Figure 2c: MST binding curve, Mean: 0.7084
WT GLUT3; M -8.21442
  Figure 2c: MST binding curve, Mean: 2.7164
WT GLUT3; M -8.51545
  Figure 2c: MST binding curve, Mean: 2.4811
WT GLUT3; M -8.81648
  Figure 2c: MST binding curve, Mean: 1.1039
WT GLUT3; WT GLUT3
  Kd: 317 ± 47.2 nM
[2]
  IC50: 331 ± 38.3 nM
[2]; SA47 at 160 μM
  inhibition at 160 µM: ~85%
Human GLUT3(N43T)
  IC50: 823 ± 138 nM
Human GLUT3(N43T); SA47 at 160 μM
  inhibition at 160 µM: ~85%
GLUT3 S71A
  Kd: 1600 ± 400 nM
GLUT3 S71A; S71A versus WT
  Affinity of SA47 with GLUT3 S71A: decreased the affinity; also recorded: reduced affinity
